Read-outs that look alike come from different tables or passages of the source.

Here are results for 64 molecules from patent publication US5118392A, “Separation of trichloroethylene from a butyl alcohol by extractive distillation” (priority 1991, dated 1992).

Data set [1] in a line: Vapor-liquid equilibrium still, t-butanol-trichloroethylene azeotrope with extractive distillation agent. Format: physicochemical. The following applies: for Relative Volatility: trichloroethylene from t-butanol, Table 10. From the text: (§1) The data in Tables 2, 3, 5, 7, 8, 10 and 11 was obtained in a vapor-liquid equilibrium still. In every case, the starting mixture was the trichloroethylene-butanol azeotrope. The relative volatilities are listed for each of the agents.
Seventy grams of the t-butanol-trichloroethylene azeotrope and 30 grams of n-butyl acetate were charged to the vapor-liquid equilibrium still and refluxed for fourteen hours.

Data set [2] is described as follows: Vapor-liquid equilibrium still, trichloroethylene-2-butanol azeotrope with extractive distillation agent. It counts as physicochemical. The following applies: trichloroethylene from 2-butanol, Table 7.
Source text: as §1
Seventy grams of the trichloroethylene-2-butanol azeotrope and 30 grams of 2-methyl-1-pentanol were charged to the vapor-liquid equilibrium still and refluxed for two hours.

Data set [3] can be described thus: Vapor-liquid equilibrium still, trichloroethylene-n-butanol azeotrope with extractive distillation agent. Format: physicochemical.
Data set [4] is described as follows: Vapor-liquid equilibrium still, trichloroethylene-isobutanol azeotrope with extractive distillation agent. Format: physicochemical.
Source text: as §1
Seventy grams of the trichloroethylene-isobutanol azeotrope and 30 grams of n-octanol were charged to the vapor-liquid equilibrium still and refluxed for five hours.

Data set [5] is described as follows: Glass perforated plate rectification column (7.3 theoretical plates), trichloroethylene / isobutanol. It counts as physicochemical. From the text: The overhead analysis was 97.7% trichloroethylene, 2.3% isobutanol and the bottoms analysis was 84.8% trichloroethylene, 15.2% isobutanol. This gives an average relative volatility of 1.31 for each theoretical plate.

The procedure of data set [6]:
A solution comprising 170 grams of trichloroethylene and 30 grams of t-butanol was placed in the stillpot of the 7.3 theoretical plate glass perforated plate rectification column. When refluxing began, an extractive agent comprising n-butyl acetate was pumped into the column at a rate of 15 ml/min. The temperature of the extractive agent as it entered the column was 85° C. After establishing the feed rate of the extractive agent, the heat input to the trichloroethylene-t-butanol in the stillpot was adjusted to give a total reflux rate of 40 ml/min. After two hours of operation, the overhead and bottoms samples were collected and analysed.

[7] abbreviates: trichloroethylene from n-butanol, Table 2.
Where [8] appears, read: trichloroethylene from isobutanol, Table 5.
Where [9] appears, read: bottoms, 2 hrs, listed as n-butyl acetate.
[10] abbreviates: overhead, 2 hrs, listed as n-butyl acetate.
Where [11] appears, read: Example 7, refluxed fourteen hours.

On to `CC(=O)CC(C)C` [4-Methyl-2-pentanone], for which the “Relative Volatility” value in data set [1] was 1.5.

On to `CCCCC(CC)CO` (centres unmarked) [2-Ethyl-1-hexanol], for which the “Relative Volatility” value in data set [2] is 1.55.

In the case of `CCCCCCCCCO` [n-Nonyl alcohol], the “Relative Volatility” value in data set [3] (setting [7]) amounted to 2.5.

Take `CCCCCCCCO` [n-Octanol]: the “liquid composition, isobutanol” value in data set [4] (Example 3, refluxed five hours) worked out at 6.1%. For the same molecule, in data set [4] (Example 3, refluxed five hours), the “liquid composition, trichloroethylene” value turned out to be 93.9%. Moreover, the “vapor composition, isobutanol” value in data set [4] (Example 3, refluxed five hours) amounted to 4.6%. Further, in data set [4] (Example 3, refluxed five hours), the “vapor composition, trichloroethylene” value was determined as 95.4%. Moreover, the Relative Volatility turned out to be 1.3 in data set [4] (Example 3: 70 g azeotrope, 30 g agent, refluxed five hours); 1.3 in data set [4] (setting [8]); 2.3 in data set [3] (setting [7]). Further, the “Relative Volatility (per theoretical plate)” value in data set [5] (1 hr) worked out at 1.275. Besides, the “Relative Volatility (average, per theoretical plate)” value in data set [5] (2 hrs) is 1.31. The “Weight % C2 H Cl3” value is 84.0% in data set [5] (bottoms, 1 hr); 84.8% in data set [5] (bottoms, 2 hrs); 96.9% in data set [5] (overhead, 1 hr); 97.7% in data set [5] (overhead, 2 hrs). Besides, the “Weight % Isobutanol” value in data set [5] (bottoms, 1 hr) came out at 16.0%; in data set [5] (bottoms, 2 hrs) it was 15.2%; in data set [5] (overhead, 1 hr) it was 3.1%; in data set [5] (overhead, 2 hrs) it was 2.3%.

As to `CCCC(=O)OCC(C)C` [Isobutyl butyrate], the “Relative Volatility” value in data set [1] is reported as 1.65.

As to `CC(C)CCCCCO` [Isooctyl alcohol], in data set [2], the “Relative Volatility” value is 1.7.

As for `CC(C)CC(C)O` (centres unmarked) [Methyl isobutyl carbinol], the “Relative Volatility” value in data set [3] (setting [7]) was 2.4.

On to `OC1CCCCC1` [Cyclohexanol], for which the “Relative Volatility” value in data set [4] (setting [8]) was 2.4; in data set [3] it was 3.5.

On to `CCCCCCO` [n-Hexyl alcohol], for which the “Relative Volatility” value in data set [3] (setting [7]) is 3.1.

Consider `CC(C)CC(=O)CC(C)C` [Diisobutyl ketone], for which the “Relative Volatility” value in data set [1] and in data set [3] (setting [7]) was 1.4 in each case.

Regarding `OCc1ccccc1` [Benzyl alcohol], the “Relative Volatility” value is reported as 2.0 in data set [4] (setting [8]) and 3.5 in data set [3] (setting [7]).

On to `OCCc1ccccc1` [Phenethyl alcohol], for which the entries for the “Relative Volatility” value in data set [4] (setting [8]) and in data set [3] (setting [7]) were 1.55 and 2.5, respectively.

As for `CCOCCC(=O)OCC` [Ethyl ethoxy propionate], the “Relative Volatility” value in data set [1] is 1.45.

`CCC(CC)CO` [2-Ethyl butanol]: the “Relative Volatility” value in data set [2] worked out at 1.85.

Consider `CC(=O)O[C@@H]1C[C@H]2CC[C@]1(C)C2(C)C` (racemic) [Isobornyl acetate], for which the “Relative Volatility” value in data set [3] (setting [7]) was 1.25.

Take `CC(C)CCCCCO` [Isooctanol]: in data set [4] (setting [8]), the “Relative Volatility” value is recorded as 1.6.

Consider `CC(C)CC(=O)CC(C)C` [2,6-Dimethyl-4-heptanone], for which the “Relative Volatility” value in data set [3] (setting [7]) was found to be 1.35.

As to `CCOC(=O)CC(C)C` [Ethyl isovalerate], the entries for the “Relative Volatility” value in data set [1] and in data set [3] (setting [7]) were 1.5 and 1.45, respectively.

Turning to `CC(=O)CCC(C)C` [5-Methyl-2-hexanone], the “Relative Volatility” value in data set [1] was 1.3; in data set [3] (setting [7]), 1.6.

Consider `CCCCCCCCCCO` [n-Decanol], for which the “Relative Volatility” value is listed as 3.9 in data set [4] (setting [8]) and 2.4 in data set [3] (setting [7]).

Consider `CCCCCCC(C)=O` [2-Octanone], for which the “Relative Volatility” value in data set [3] (setting [7]) turned out to be 1.4.

Turning to `CC(=O)c1ccccc1` [Acetophenone], the “Relative Volatility” value in data set [3] (setting [7]) worked out at 1.6.

In the case of `CC(C)CCCCCCCO` [Isodecyl alcohol], the “Relative Volatility” value in data set [3] came to 3.6.

Turning to `CC(=O)C(C)C` [Methyl isopropyl ketone], the “Relative Volatility” value in data set [1] turned out to be 1.3.

On to `CCCCCCCO` [Heptyl alcohol], for which the “Relative Volatility” value in data set [2] is on record as 1.55; in data set [4] (setting [8]), 1.95.

As for `CC(=O)OCCC(C)C` [Isoamyl acetate], the “Relative Volatility” value in data set [1] was 1.5.

As for `CC(C)COC(=O)C(C)C` [Isobutyl isobutyrate], the “Relative Volatility” value in data set [1] is given as 1.45; in data set [3], 1.5.

For the molecule `COCC(C)OC(C)=O` (centres unmarked) [1-Methoxy-2-propanol acetate], the figures for the “Relative Volatility” value in data set [1] and in data set [3] were 1.65 and 1.5, respectively.

Consider `CC1=CC(=O)CC(C)(C)C1` [Isophorone], for which the “Relative Volatility” value is 1.6 in data set [4] (setting [8]) and 1.45 in data set [3] (setting [7]).

With `CCOC(=O)CC` [Ethyl propionate], the “Relative Volatility” value in data set [1] is reported as 2.4.

In the case of 2-Methoxyethyl ether acetate, the “Relative Volatility” value in data set [1] was found to be 1.85.

With `CC(=O)CC(C)(C)O` [Diacetone alcohol], the “Relative Volatility” value in data set [2] was found to be 1.45; in data set [4] (setting [8]) it was 1.3.

For the molecule `CCCCCCCCCO` [Nonyl alcohol], in data set [4] (setting [8]), the “Relative Volatility” value is reported as 3.8.

For `CCCCOC(C)=O` [n-Butyl acetate], in data set [6] (1 hr), the “Relative Volatility (per theoretical plate)” value was 1.63. The “Relative Volatility (average, t-butanol to trichloroethylene, per theoretical plate)” value in data set [6] (2 hrs) is recorded as 2.15. The “Weight % C2 H Cl3” value in data set [6] (bottoms, 1 hr) is reported as 6.1%; in data set [6] (bottoms, 2 hrs) it was 4.1%; in data set [6] (setting [9]), 95.9%; in data set [6] (overhead, 1 hr) it was 70.3%; in data set [6] (overhead, 2 hrs), 92.2%; in data set [6] (setting [10]), 7.8%. For the same molecule, the “Weight % t-Butanol” value in data set [6] (bottoms, 1 hr) was 93.9%; in data set [6] (bottoms, 2 hrs) it was 95.9%; in data set [6] (setting [9]), 4.1%; in data set [6] (overhead, 1 hr), 29.7%; in data set [6] (overhead, 2 hrs) it was 7.8%; in data set [6] (setting [10]), 92.2%. For the same molecule, in data set [1] (setting [11]), the “liquid composition, t-butanol” value is listed as 31.7%. For the same molecule, the “liquid composition, trichloroethylene” value in data set [1] (setting [11]) worked out at 68.3%. The “vapor composition, t-butanol” value in data set [1] (setting [11]) was 55.5%. For the same molecule, the “vapor composition, trichloroethylene” value in data set [1] (setting [11]) was 44.5%. The “relative volatility of t-butanol to trichloroethylene” value in data set [1] (Example 7: 70 g azeotrope, 30 g agent, refluxed fourteen hours) was determined as 1.7. In addition, in data set [1], the “Relative Volatility” value was determined as 1.7.

In the case of `CCCCCOC(C)=O` [n-Amyl acetate], the “Relative Volatility” value in data set [1] is 1.7.

Take `CCCC(C)=O` [2-Pentanone]: in data set [1], the “Relative Volatility” value came to 1.9.

On to `CC(C)CC(C)O` (centres unmarked) [4-Methyl-2-pentanol], for which the “Relative Volatility” value in data set [4] (setting [8]) is given as 2.7.

For the molecule `CCCC(C)CO` (centres unmarked) [2-Methyl pentanol], the “Relative Volatility” value in data set [3] (setting [7]) is given as 3.5.

On to `CCCCCCOC(C)=O` [Hexyl acetate], for which the “Relative Volatility” value in data set [1] amounted to 1.4.

For the molecule `CC(=O)OCC(C)C` [Isobutyl acetate], the “Relative Volatility” value in data set [1] is recorded as 1.4.

On to `OCC1CCCO1` (centres unmarked) [Tetrahydrofurfuryl alcohol], for which the “Relative Volatility” value is reported as 1.65 in data set [2], 2.4 in data set [4] (setting [8]) and 2.2 in data set [3].

Take `CCCCCC(C)=O` [2-Heptanone]: the “Relative Volatility” value in data set [3] (setting [7]) stood at 1.7.

As to `CCCCCCCCO` [1-Octanol], the “Relative Volatility” value in data set [2] is 1.5.

Take `CCCCC(=O)OCC` [Ethyl valerate]: the “Relative Volatility” value in data set [1] was determined as 1.65; in data set [3] (setting [7]) it was 3.0.

With `CC(C)CC(O)CC(C)C` [Diisobutyl carbinol], the “Relative Volatility” value in data set [2] is recorded as 1.35; in data set [4] (setting [8]), 1.6; in data set [3] (setting [7]), 1.4.

For the molecule `CN(C)C=O` [Dimethylformamide], the “Relative Volatility” value in data set [3] is given as 4.5.

Consider `CCC(C)(O)CC` [3-Methyl-3-pentanol], for which the “Relative Volatility” value in data set [2] amounted to 1.35.

In the case of `CCCCC(=O)CC` [3-Heptanone], the “Relative Volatility” value in data set [1] was found to be 1.35.

Turning to `CC(=O)CCC(C)C` [Methyl isoamyl ketone], the “Relative Volatility” value in data set [1] is reported as 1.4.

With `CC(C)CCCO` [Isohexyl alcohol], the “Relative Volatility” value in data set [4] (setting [8]) came to 2.6.

Turning to `OCCCc1ccccc1` [3-Phenyl-1-propanol], the “Relative Volatility” value in data set [2] was determined as 1.65.

Consider `CCCCCCC(C)O` (centres unmarked) [2-Octanol], for which the “Relative Volatility” value in data set [4] (setting [8]) is reported as 2.7.

With `CCCCCC(=O)CC` [3-Octanone], the “Relative Volatility” value in data set [3] (setting [7]) came to 1.35.

As to `CC(C)CCCCCCO` [Isononyl alcohol], in data set [2], the “Relative Volatility” value is listed as 1.35.

`CC(=O)CC(C)C` [Methyl isobutyl ketone]: the “Relative Volatility” value in data set [1] is recorded as 1.3.

Take `CCCCCCO` [Hexyl alcohol]: the “Relative Volatility” value in data set [2] was 2.6.

For `COCC(C)O` (centres unmarked) [1-Methoxy-2-propanol], in data set [1], the “Relative Volatility” value came to 1.65.

As to `CC(=O)CCC(C)=O` [Acetonylacetone], in data set [3] (setting [7]), the “Relative Volatility” value is reported as 2.6.

Take `CCCC(=O)OCC` [Ethyl butyrate]: in data set [1], the “Relative Volatility” value is listed as 1.5.

As for `CC(=O)CC(C)=O` [2,4-Pentanedione], the “Relative Volatility” value in data set [1] came to 1.4.

`CCCOC(C)=O` [n-Propyl acetate]: the “Relative Volatility” value in data set [1] turned out to be 2.9.

With `CCCC(=O)CC` [3-Hexanone], the “Relative Volatility” value in data set [1] turned out to be 1.55.

As to `O=S1(=O)CCCC1` [Sulfolane], in data set [3] (setting [7]), the “Relative Volatility” value came to 2.5.

For `CC(C)CCO` [Isoamyl alcohol], the “Relative Volatility” value in data set [4] (setting [8]) is 1.9.
